≈ marks a conversion by molar mass, not a printed value. Like-named read-outs stand apart in the source and are kept apart here.
Experiments:
[1] = Wettability analysis (contact angle, ultrapure water); assay type: physicochemical; settings: room temperature
Protocol: Wettability analysis has been carried out by a contact angle meter (Kyowa Interface Science, made in Japan, model: DMe-211Plus) with FAMAS software for data processing.
The contact angle of cocrystals (Form J and G) and Form III (reference) was evaluated at room temperature using ultrapure water (by MilliQ system). Cocrystals (Form J and G) and Form III were previously grounded with a mortar and pestle to limit the effect of particle sizes. Then, approximately 27 mg of each sample were collected on a glass substrate limited to a Teflon O-ring (6.0 mm diameter) and gently leveled by a spatula. The contact time between the drop and sample was set at 9 s and the aqueous falling volume was 2.0 μl.

[2] = Kinetic solubility study in aqueous buffers (HPLC of mother liquors); assay type: physicochemical; settings: for solubility at 30 min: aqueous buffer, thermodynamic from solid, read-out: highest solubility; for Conc 1st duplicate / Conc 2nd duplicate / Conc Average: room temperature
Protocol: Each sample was analyzed in duplicate. Cocrystals form J and G as well as the crystalline form III were previously grounded with mortar and pestle to reduce the particle size effects. […] At scheduled timing (0.5 h, 1 h, 3 h, 5 h, 24 h), aliquots of approximately 3 ml were withdrawn and filtered. Mother liquors were analyzed in triplicate by HPLC, and their pH values checked by pH me[…]/conductometer, Methron).

Wettability character (hydrophilic: contact angle <90 degrees; hydrophobic: >90 degrees) [1]: hydrophilic
Contact angle Sample 1 ([1]; 2.0 μl drop, contact time 9 s): 76.8 degrees
Contact angle Sample 2 ([1]; 2.0 μl drop, contact time 9 s): 75.0 degrees
Contact angle Sample 3 ([1]; 2.0 μl drop, contact time 9 s): 81.2 degrees
Contact angle Average ([1]; average of samples 1-3): 77.67 degrees
solubility at 30 min ([2]; acetate buffer, pH 5.1, room temperature, maximum over 0.5-24 h (Form J and G after 1 h, Form III after 30 min)): 18.07 ± 0.06 µg/mL (≈ 44.9 µM)
dissolution (in words) ([2]; pH 5.1, room temperature): faster than the one at pH 6.0
Conc 1st duplicate ([2]; pH 5.1 buffer, 30 min): 18070 ng/mL
Conc 2nd duplicate ([2]; pH 5.1 buffer, 30 min): 18120 ng/mL
Conc Average ([2]; pH 5.1 buffer, 30 min): 18070 ng/mL
Conc 1st duplicate ([2]; pH 5.1 buffer, 1 h): 10020 ng/mL
Conc 2nd duplicate ([2]; pH 5.1 buffer, 1 h): 10000 ng/mL
Conc Average ([2]; pH 5.1 buffer, 1 h): 10010 ng/mL
Conc 1st duplicate ([2]; pH 5.1 buffer, 3 h): 16960 ng/mL
Conc 2nd duplicate ([2]; pH 5.1 buffer, 3 h): 16820 ng/mL
Conc Average ([2]; pH 5.1 buffer, 3 h): 16890 ng/mL
Conc 1st duplicate ([2]; pH 5.1 buffer, 5 h): 14680 ng/mL
Conc 2nd duplicate ([2]; pH 5.1 buffer, 5 h): 15020 ng/mL
Conc Average ([2]; pH 5.1 buffer, 5 h): 14770 ng/mL
Conc 1st duplicate ([2]; pH 5.1 buffer, 24 h): 2590 ng/mL
Conc 2nd duplicate ([2]; pH 5.1 buffer, 24 h): 2600 ng/mL
Conc Average ([2]; pH 5.1 buffer, 24 h): 2600 ng/mL
Conc 1st duplicate ([2]; pH 6.0 buffer, 30 min): 4380 ng/mL
Conc 2nd duplicate ([2]; pH 6.0 buffer, 30 min): 4370 ng/mL
Conc Average ([2]; pH 6.0 buffer, 30 min): 4380 ng/mL
Conc 1st duplicate ([2]; pH 6.0 buffer, 1 h): 3580 ng/mL
Conc 2nd duplicate ([2]; pH 6.0 buffer, 1 h): 3560 ng/mL
Conc Average ([2]; pH 6.0 buffer, 1 h): 3570 ng/mL
Conc 1st duplicate ([2]; pH 6.0 buffer, 3 h): 11150 ng/mL
Conc 2nd duplicate ([2]; pH 6.0 buffer, 3 h): 10970 ng/mL
Conc Average ([2]; pH 6.0 buffer, 3 h): 11060 ng/mL
Conc 1st duplicate ([2]; pH 6.0 buffer, 5 h): 1920 ng/mL
Conc 2nd duplicate ([2]; pH 6.0 buffer, 5 h): 1920 ng/mL
Conc Average ([2]; pH 6.0 buffer, 5 h): 1920 ng/mL
Conc 1st duplicate ([2]; pH 6.0 buffer, 24 h): 4020 ng/mL
Conc 2nd duplicate ([2]; pH 6.0 buffer, 24 h): 4030 ng/mL
Conc Average ([2]; pH 6.0 buffer, 24 h): 4020 ng/mL
solubility at 30 min ([2]; phosphate buffer, pH 6.0, room temperature, maximum over 0.5-24 h (Form J and Form III 30 min, Form G after 1 h)): 15.97 ± 0.04 µg/mL (≈ 39.7 µM)
Structure (SMILES): CCC(=O)O[C@]1(C(=O)CO)CC[C@H]2[C@@H]3CCC4=CC(=O)CC[C@]4(C)[C@H]3CC[C@@]21C [Form III, cortexolone 17α-propionate]
